Where two headings read alike, the source gives them in different places.
System: ACC2 CT
Experiment: NADH reverse-coupled assay
Assay type: biochemical, human
Details: reverse reaction
Experimental: In the reverse reaction, ACC2 CT catalyzes the production of Acetyl CoA using malonyl CoA and biocytin as the substrates.
The activity of ACC2 CT in the reverse reaction is measured indirectly by coupling the reaction with two other enzymes, malate dehydrogenase and citrate synthase. Malate dehydrogenase converts NAD+ and malate to produce NADH and oxaloacetate. The acetyl CoA produced by the ACC2 CT reverse reaction and the oxaloacetate produced by the malate dehydrogenase reaction are consumed as the substrates for the citrate synthase reaction. The final products of the citrate synthase reaction are citric acid and CoA, but it is the production of NADH that acts as the readout for the activity of ACC2 CT. The conversion of NAD+ to NADH is detected by reading absorbance at 340 nm.
The final assay conditions are 50 nM ACC2 CT, 1 mM Malonyl CoA, 20 mM Biocytin, 8 mM Malic Acid, 3 mM NAD+, 100 units/mL Malate Dehydrogenase, 20 units/mL Citrate Synthase, 50 mM Hepes pH 7.0, 100 mM NaCl, 0.01% Tween 20, and compounds are used with a 200-fold dilution of 100% DMSO stock for a final concentration of 0.5% DMSO.
Absorbance data is collected at 340 nm and 37° C. for at least 30 minutes. Linear kinetic rates (mOD/min) are used to calculate % inhibition values of the compounds tested.

| Km (against 50 nM ACC2/20 mM Biocytin, 37° C., absorbance 340 nm, read-out: kM of Malonyl CoA) [µM] | Km (against ACC2/No Biocytin, 37° C., absorbance 340 nm, read-out: kM of Malonyl CoA) [µM] | Km (could not be precisely determined, estimated, read-out: kM of Biocytin) [µM] | SMILES |
| --- | --- | --- | --- |
| 160 | 130 | – | CC(C)(COP(=O)(O)OP(=O)(O)OC[C@H]1O[C@@H](n2cnc3c(N)ncnc32)[C@H](O)[C@@H]1OP(=O)(O)O)[C@@H](O)C(=O)NCCC(=O)NCCSC(=O)CC(=O)O [Malonyl CoA] |
| – | – | ~20000 | N[C@@H](CCCCNC(=O)CCCC[C@@H]1SC[C@@H]2NC(=O)N[C@@H]21)C(=O)O [Biocytin] |

Source: patent US20090155815A1, “CRYSTAL STRUCTURE OF THE CARBOXYL TRANSFERASE DOMAIN OF HUMAN ACETYL-COA CARBOXYLASE 2 PROTEIN (ACC2 CT) AND USES THEREOF” (priority 2007, published 2009)
